System: rodent lifetime carcinogenesis bioassay, tumor incidence TD50
Test: chronic cancer bioassays in animals – CPDB, compiled studies (AID 1745844)
Conditions: rat, strain BD VI, females, by gavage, dosed 72 weeks, study length 72 weeks

CN(N=O)c1ccccn1
TD50 (site: any site (literature study), lesion: benign tumor): 3.05 mg/kg/day
TD50 (site: any site (literature study), lesion: malignant tumor): 0.668 mg/kg/day
TD50 (site: any site (literature study), lesion: several types, types named in the paper): 0.28 mg/kg/day
TD50 (site: esophagus, lesion: several types, types named in the paper): 0.214 mg/kg/day
